Laboratory results: ChEMBL document CHEMBL3817823 (J Med Chem, 2016)
Active and inactive are the calls of the source. No cut-off for these calls is given here.

Assays:
[1] = biological target: Protein arginine N-methyltransferase 3 (Homo sapiens) (UniProt O60678); experiment: Inhibition of PRMT3 (unknown origin) at 1 to 50 uM by scintillation proximity assay
[2] = Oral bioavailability in rat at 0.8 mg/kg by LC-MS/MS analysis; format: ADME, organism-based; details: in vivo
U2OS = experiment: Potentiation of doxorubicin-induced apoptosis in human U2OS cells assessed as caspase 3/7 activation up to 20 uM after 2 days by […]; format: functional, cell-based
[3] = biological target: Histone-lysine N-methyltransferase 2A (Homo sapiens) (UniProt Q03164); experiment: Inhibition of MLL1 (unknown origin) at 1 to 50 uM by scintillation proximity assay
[4] = biological target: Histone-lysine N-methyltransferase SETD7 (Homo sapiens) (UniProt Q8WTS6); experiment: Inhibition of SETD7 (unknown origin) at 1 to 50 uM by scintillation proximity assay
Sequence of Histone-lysine N-methyltransferase SETD7 (Homo sapiens) (Q8WTS6 whole entry): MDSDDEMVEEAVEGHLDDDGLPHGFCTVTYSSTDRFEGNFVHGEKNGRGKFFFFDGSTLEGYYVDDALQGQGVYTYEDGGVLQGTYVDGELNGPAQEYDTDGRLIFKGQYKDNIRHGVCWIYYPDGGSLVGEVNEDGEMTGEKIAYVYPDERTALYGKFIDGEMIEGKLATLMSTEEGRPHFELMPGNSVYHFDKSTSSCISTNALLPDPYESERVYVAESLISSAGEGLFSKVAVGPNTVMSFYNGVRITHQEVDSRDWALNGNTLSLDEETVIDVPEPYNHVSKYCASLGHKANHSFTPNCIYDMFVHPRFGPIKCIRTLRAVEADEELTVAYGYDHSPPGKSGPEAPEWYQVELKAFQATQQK

Sequence of Protein arginine N-methyltransferase 3 (Homo sapiens) (O60678 2-531 limits assumed): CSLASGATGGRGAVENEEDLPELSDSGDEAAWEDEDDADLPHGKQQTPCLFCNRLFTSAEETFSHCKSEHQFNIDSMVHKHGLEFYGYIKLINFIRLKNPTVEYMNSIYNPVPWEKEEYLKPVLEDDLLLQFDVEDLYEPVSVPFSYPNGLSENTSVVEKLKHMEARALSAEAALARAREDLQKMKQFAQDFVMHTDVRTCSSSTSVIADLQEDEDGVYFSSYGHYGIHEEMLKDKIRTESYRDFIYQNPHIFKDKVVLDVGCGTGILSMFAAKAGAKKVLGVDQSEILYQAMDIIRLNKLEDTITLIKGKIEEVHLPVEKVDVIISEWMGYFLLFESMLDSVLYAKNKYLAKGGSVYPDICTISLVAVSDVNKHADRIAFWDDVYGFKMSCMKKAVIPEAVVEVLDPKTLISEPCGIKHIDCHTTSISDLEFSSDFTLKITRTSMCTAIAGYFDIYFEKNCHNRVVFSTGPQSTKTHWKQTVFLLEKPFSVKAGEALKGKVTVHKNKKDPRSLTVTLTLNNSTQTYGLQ
Sequence of Histone-lysine N-methyltransferase 2A (Homo sapiens) (Q03164 1-2718 limits assumed): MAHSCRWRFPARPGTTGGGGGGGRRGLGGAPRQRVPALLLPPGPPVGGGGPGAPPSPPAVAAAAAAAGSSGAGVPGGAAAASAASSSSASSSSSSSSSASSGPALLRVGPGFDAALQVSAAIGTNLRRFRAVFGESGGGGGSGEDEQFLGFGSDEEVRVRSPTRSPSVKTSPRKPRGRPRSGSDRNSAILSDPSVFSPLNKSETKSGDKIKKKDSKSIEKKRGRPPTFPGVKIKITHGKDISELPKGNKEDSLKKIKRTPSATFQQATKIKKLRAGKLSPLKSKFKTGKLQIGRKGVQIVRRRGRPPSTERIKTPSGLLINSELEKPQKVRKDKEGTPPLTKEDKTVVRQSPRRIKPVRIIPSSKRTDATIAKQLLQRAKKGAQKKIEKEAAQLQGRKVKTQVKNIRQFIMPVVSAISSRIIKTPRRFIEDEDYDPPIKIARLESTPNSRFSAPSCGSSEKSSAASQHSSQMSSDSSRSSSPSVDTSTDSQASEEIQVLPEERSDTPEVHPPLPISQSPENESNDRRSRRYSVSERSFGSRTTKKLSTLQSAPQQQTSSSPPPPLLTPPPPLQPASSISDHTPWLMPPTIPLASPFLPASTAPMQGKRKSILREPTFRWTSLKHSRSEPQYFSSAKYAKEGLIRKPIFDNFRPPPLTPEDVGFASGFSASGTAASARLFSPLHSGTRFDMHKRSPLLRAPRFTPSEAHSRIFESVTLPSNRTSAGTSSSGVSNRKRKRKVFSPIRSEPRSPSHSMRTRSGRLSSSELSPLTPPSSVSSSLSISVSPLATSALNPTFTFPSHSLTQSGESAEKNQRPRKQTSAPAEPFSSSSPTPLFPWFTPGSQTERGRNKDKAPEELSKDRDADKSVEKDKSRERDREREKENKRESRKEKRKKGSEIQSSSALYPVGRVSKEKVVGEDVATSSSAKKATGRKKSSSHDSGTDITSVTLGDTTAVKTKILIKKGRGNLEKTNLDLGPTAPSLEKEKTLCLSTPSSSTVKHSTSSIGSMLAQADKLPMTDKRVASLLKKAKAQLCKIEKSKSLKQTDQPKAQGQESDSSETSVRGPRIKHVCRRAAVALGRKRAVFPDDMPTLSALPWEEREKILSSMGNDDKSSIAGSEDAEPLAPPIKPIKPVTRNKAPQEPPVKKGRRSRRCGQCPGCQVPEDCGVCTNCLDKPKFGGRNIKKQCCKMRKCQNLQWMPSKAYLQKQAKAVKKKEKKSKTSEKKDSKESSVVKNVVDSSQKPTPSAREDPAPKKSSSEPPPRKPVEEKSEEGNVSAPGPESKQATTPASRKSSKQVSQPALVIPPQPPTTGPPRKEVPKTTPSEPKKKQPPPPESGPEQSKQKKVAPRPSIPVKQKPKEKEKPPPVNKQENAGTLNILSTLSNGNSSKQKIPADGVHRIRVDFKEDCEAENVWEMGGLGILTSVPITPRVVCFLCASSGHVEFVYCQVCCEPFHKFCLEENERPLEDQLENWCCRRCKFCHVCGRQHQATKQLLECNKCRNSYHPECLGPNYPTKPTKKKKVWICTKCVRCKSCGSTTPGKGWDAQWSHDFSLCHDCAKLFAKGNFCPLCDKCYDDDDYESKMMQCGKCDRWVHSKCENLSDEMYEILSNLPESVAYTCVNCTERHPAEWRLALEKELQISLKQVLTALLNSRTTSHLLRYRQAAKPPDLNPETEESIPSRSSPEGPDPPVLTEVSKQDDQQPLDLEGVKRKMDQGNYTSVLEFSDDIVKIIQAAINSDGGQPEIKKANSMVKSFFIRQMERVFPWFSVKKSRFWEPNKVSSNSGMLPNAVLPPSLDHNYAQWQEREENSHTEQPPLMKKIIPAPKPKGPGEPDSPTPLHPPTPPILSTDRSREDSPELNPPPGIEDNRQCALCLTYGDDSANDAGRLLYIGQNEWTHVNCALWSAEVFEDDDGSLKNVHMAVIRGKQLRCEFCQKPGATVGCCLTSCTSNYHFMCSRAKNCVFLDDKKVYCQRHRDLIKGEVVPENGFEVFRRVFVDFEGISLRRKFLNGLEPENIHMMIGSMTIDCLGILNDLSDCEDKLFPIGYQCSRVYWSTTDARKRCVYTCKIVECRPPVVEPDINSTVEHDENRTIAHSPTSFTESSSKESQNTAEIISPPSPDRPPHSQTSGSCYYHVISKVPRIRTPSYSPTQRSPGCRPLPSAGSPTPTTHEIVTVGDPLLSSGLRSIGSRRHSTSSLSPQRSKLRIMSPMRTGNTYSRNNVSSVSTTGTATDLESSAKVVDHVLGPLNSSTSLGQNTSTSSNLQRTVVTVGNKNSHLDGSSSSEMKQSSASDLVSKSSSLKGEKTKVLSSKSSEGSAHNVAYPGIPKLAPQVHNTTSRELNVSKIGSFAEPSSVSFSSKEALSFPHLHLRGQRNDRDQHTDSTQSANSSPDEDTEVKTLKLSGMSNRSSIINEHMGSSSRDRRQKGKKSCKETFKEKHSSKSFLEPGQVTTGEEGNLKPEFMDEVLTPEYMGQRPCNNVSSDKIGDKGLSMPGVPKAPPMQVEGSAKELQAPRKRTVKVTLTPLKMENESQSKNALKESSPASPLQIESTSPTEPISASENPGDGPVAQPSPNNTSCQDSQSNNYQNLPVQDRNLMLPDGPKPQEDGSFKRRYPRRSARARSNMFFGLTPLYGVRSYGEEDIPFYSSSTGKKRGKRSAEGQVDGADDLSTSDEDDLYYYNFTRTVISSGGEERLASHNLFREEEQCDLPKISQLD
Sequence of Histone-lysine N-methyltransferase 2A (Homo sapiens) (Q03164 2719-3969 limits assumed): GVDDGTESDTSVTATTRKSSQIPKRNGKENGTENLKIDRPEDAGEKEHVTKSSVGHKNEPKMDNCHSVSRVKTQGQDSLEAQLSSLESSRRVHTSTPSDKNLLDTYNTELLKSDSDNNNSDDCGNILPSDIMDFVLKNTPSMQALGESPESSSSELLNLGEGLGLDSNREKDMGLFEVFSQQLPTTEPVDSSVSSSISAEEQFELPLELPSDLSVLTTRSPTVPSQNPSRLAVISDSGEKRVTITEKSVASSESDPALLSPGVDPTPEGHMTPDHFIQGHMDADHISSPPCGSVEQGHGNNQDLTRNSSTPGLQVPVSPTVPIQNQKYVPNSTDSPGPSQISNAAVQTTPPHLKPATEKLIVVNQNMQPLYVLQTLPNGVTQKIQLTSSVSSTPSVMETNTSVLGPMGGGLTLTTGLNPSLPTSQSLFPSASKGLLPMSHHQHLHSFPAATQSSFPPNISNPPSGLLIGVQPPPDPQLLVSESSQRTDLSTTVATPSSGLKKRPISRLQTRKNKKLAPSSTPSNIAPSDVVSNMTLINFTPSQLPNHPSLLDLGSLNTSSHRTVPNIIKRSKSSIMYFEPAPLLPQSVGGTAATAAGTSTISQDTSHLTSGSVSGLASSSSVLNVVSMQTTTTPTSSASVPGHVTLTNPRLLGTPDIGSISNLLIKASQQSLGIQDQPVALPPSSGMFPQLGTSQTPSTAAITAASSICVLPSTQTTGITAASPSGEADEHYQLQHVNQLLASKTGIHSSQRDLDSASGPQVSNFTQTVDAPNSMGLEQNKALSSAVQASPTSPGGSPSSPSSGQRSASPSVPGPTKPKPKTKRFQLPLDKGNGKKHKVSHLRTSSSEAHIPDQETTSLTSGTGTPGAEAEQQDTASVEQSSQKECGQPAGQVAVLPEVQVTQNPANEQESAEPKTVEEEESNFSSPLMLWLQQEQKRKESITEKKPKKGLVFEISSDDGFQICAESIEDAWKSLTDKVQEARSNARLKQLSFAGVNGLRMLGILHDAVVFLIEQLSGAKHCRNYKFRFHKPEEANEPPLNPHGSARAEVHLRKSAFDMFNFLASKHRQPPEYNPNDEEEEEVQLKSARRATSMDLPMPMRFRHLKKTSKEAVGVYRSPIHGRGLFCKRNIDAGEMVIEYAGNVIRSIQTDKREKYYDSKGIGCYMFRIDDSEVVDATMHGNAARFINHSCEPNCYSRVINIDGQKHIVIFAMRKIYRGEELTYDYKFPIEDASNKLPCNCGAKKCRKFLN

inhibition [1]: inactive
bioavailability [2]: 24%
inhibition [3]: inactive
inhibition [4]: inactive
Compound: CCN(C(=O)CO)[C@H]1CN(/C(=N\C#N)Nc2cccc(OC(F)F)c2)N=C1c1ccc(Cl)c(Cl)c1
Activity (U2OS): Active
